Experimental data published in ChEMBL document CHEMBL5303711, “ECBD screening data for assay EOS300108” (2023).
Where a name gives a salt, the structure may show the parent alone. Active and inactive are the calls of the source. The rule behind the calls is not given here.

Assay: Cytotoxicity activity against human HepG2 cells assessed by CellTiter-Glo luminescent cell viability assay.
Assay type: toxicity, cell-based
Design: assay stage confirmatory assay, source tissue liver
Conditions: HepG2 cells, read-out: IC50 relative

SMILES	CC50
CCOc1ccc(S(=O)(=O)Nc2ccc3c(c2)N(C(C)=O)CCC3)cc1	6.4 µM (active)
Cc1cccn2c(CC(=O)N3CCOc4ccc(Cl)cc4C3)cnc12	4.9 µM (active)
COc1ccc2cc(C(=O)Nc3ccc4oc(=O)[nH]c4c3)[nH]c2c1	32.5 µM (inactive)
CS(=O)(=O)Nc1ccc(C(=O)N2CCN(CCOc3ccc(Cl)cc3)CC2)cc1	4.6 µM (active)
CNCCCC1c2ccccc2C=Cc2ccccc21 [PROTRIPTYLINE HYDROCHLORIDE]	8.9 µM (active)
CCc1oc2ccccc2c1CN(C)C(=O)C1(C)CCN(C)CC1	12 µM (active)
O=c1cc(CSc2ccccc2)nc2sc(-c3ccco3)nn12	3.2 µM (active)
Clc1ccc(C2=CCNCC2)cc1Cl	10.8 µM (active)
COc1ccc(OC)c(-c2cc(C(=O)Nc3ccccn3)no2)c1	0.8 µM (inactive)
CCn1cc(CC(=O)Nc2ccc(Oc3ccccc3)cn2)cn1	5.3 µM (active)
CC(C)n1nc(-c2ccc3oc(N)nc3c2)c2c(N)ncnc21 [SAPANISERTIB]	0.2 µM (active)
O=C(Cc1cccc(F)c1)Nc1cccc2ncccc12	14.5 µM (inactive)
CC(=O)N1c2ccc(S(=O)(=O)N3CCC(C(=O)NCc4cccs4)CC3)cc2CC1C (stereo not drawn)	33.9 µM (inactive)
CCn1cc(-c2ccnc3[nH]c(-c4cccc(CN(C)C)c4)cc23)c(-c2ccc(NC(=O)N(C)C)cc2)n1 [GSK-1070916]	2.8 µM (active)
Oc1cc(-c2nc(-c3ccccc3)[nH]c2-c2ccncc2)ccc1Cl	0.6 µM (active)
COc1cc2c(cc1-c1c(C)noc1C)ncc1[nH]c(=O)n([C@H](C)c3ccccn3)c12	1.4 µM (active)
CCc1c2c(nc3ccc(OC(=O)N4CCC(N5CCCCC5)CC4)cc13)-c1cc3c(c(=O)n1C2)COC(=O)[C@]3(O)CC [IRINOTECAN]	10.1 µM (active)
O=C(N/N=C/c1ccccc1O)c1ccncc1 [SALINAZID]	9.5 µM (active)
Cc1noc(C)c1C(=O)Nc1nc(-c2ccc(S(=O)(=O)N(C)C)cc2)cs1	11.3 µM (active)
CN(C)CC#Cc1ccc(OCCCc2sc(N3CCc4cccc(C(=O)Nc5nc6ccccc6s5)c4C3)nc2C(=O)O)c(F)c1 [A-1155463]	2.3 µM (active)
CCN(CC)CCNC(=O)C1CCCN(c2ncc(-c3ccc(C)cc3)cn2)C1 (stereo not drawn)	4.3 µM (active)
Cn1c(=O)c2c(ncn2CCn2ncc(Cl)c(Cl)c2=O)n(C)c1=O	11.7 µM (active)

SMILES	CC50
CCc1ccc(S(=O)(=O)N2CCN(c3ccc(C(C)=O)cc3)CC2)cc1	50 µM (inactive)
COc1ccc2nc(NC(=O)CN3C(=O)c4ccccc4S3(=O)=O)sc2c1	14.8 µM (inactive)
C[C@H]1Cc2cc(S(N)(=O)=O)ccc2N1Cc1cc(=O)n2cc(Cl)ccc2n1	10.9 µM (active)
O=C(NO)c1ccc(I)cc1	12.2 µM (active)
CCN(CC)CCCC(C)Nc1c2ccc(Cl)cc2nc2ccc(OC)cc12 (stereo not drawn) [QUINACRINE DIHYDROCHLORIDE]	1.1 µM (active)
O=C(Nc1ccc(Cl)cc1)N1CCCN(Cc2ccc(F)cc2)C1	6.7 µM (active)
C[C@@H]1CN(c2cc(-c3n[nH]c4ccc(OC5(C)CC5)cc34)ncn2)C[C@H](C)O1 [MLi-2]	16.5 µM (active)
COc1cc2ncnc(Nc3cccc(Br)c3)c2cc1OC	6.7 µM (active)
O=C(Nc1ccc2c(c1)S(=O)(=O)C=C2)c1ncoc1-c1ccco1	10.9 µM (inactive)
CCOCc1ccc(O)c2ncccc12	5.6 µM (active)
COc1ccc(-c2cc3c(C)nc(N)nc3n([C@H]3CC[C@H](OCCO)CC3)c2=O)cn1 [PF-04691502]	0.6 µM (active)
CS(=O)(=O)N1CCc2ccc(NC(=O)Nc3ccc(Br)cc3)cc21	3.2 µM (inactive)
C[C@@H](Oc1cc(-c2cnn(C3CCNCC3)c2)cnc1N)c1c(Cl)ccc(F)c1Cl [CRIZOTINIB]	2.8 µM (active)
N#Cc1ccc(CN2CCN(C(=O)c3ccc(Cn4cccn4)cc3)CC2)cc1	3.9 µM (active)
CC(C)Oc1cc(O)c2c(=O)c(-c3ccc(O)cc3)coc2c1	15.6 µM (active)
CN(C)CC1(O)CCCN(Cc2cc3ccccc3n2C)C1 (stereo not drawn)	11.8 µM (active)
COc1ccc(-n2ccc(C(=O)Nc3cc(Cl)c(=O)n(C)c3)n2)cc1	7.7 µM (active)
O=S1(=O)C[C@H](NC2CCCC2)[C@@H](S(=O)(=O)c2cccs2)C1	16.1 µM (active)
O=C(Nc1cccnc1)N1CCC(Cc2cccc(Oc3ccc(C(F)(F)F)cn3)c2)CC1	12.7 µM (active)
CN(Cc1ccccc1)C1=CC(=[N+]2CCCC2)CC(C)(C)C1	3.3 µM (active)
CC(C)C[C@H](NC(=O)[C@@H](NC(=O)c1cccc(-c2ccccc2)n1)[C@@H](C)O)B(O)O [DELANZOMIB]	< 0.1 µM (active)
C#CCOC1CCN(C(=O)c2ccc(F)c(Br)c2)CC1	8.6 µM (active)

SMILES	CC50
Cc1occc1-c1cc(NC(=O)N2CCC[C@H]2c2cccn2C)no1	1.1 µM (active)
CCN1CCN(CCCNC(=O)c2cccc(NC(=O)c3nnc(COc4ccccc4)s3)c2)CC1	6.9 µM (active)
c1cc2c(cc1-c1ccc3c(n1)CCCN3)CCN2	13.5 µM (inactive)
CC(C)Cn1cnc(S(=O)(=O)N2CCC[C@@H]2COc2ccc(F)cc2)c1	8.4 µM (active)
O=C(O)c1ccc2cc(-c3ccc(O)c(C45CC6CC(CC(C6)C4)C5)c3)ccc2c1 [O-DEMETHYLATED ADAPALENE]	8.3 µM (active)
C#Cc1cccc(Nc2ncnc3cc(OC)c(OCCCCCCC(=O)NO)cc23)c1 [CUDC-101]	0.5 µM (active)
COc1cc(O)cc(O)c1C(=O)/C=C/c1ccccc1 [CARDAMOMIN]	18.3 µM (inactive)
O=C(Nc1ccc(Cl)cc1)Nc1ccc(Cl)c(Cl)c1 [TRICLOCARBAN]	42.9 µM (inactive)
CC[C@@](NC(=O)c1csc(-c2ccoc2)n1)(C(N)=O)C(C)C	5.2 µM (active)
O=C1CCc2ccc(OCCCCN3CCN(c4cccc(Cl)c4Cl)CC3)cc2N1 [ARIPIPRAZOLE]	25.6 µM (inactive)
CC(C)CCOc1ccc(CN(CC(C)(C)N(C)C)S(C)(=O)=O)cc1	12.2 µM (active)
CC(C)(C)c1ccccc1Oc1ncccc1NC(=O)Nc1ccc(OC(F)(F)F)cc1	7.9 µM (active)
COc1ccc2c(c1)cc(C(=O)N[C@@H](C)C(=O)N1CCN(Cc3ccccc3)CC1)n2C	13.1 µM (inactive)
CN(C)Cc1ccc(-c2nc3cccc4c3n2CCNC4=O)cc1	10.9 µM (active)
CCOc1ccccc1C(=O)N1CCN(c2ccccc2OCC)CC1	15.1 µM (inactive)
CN1CCN([C@H]2CC[C@H](n3cc(-c4ccc(Oc5ccccc5)cc4)c4c(N)ncnc43)CC2)CC1	1.6 µM (active)
O=C(Cn1ncc(Cl)c(Cl)c1=O)NCc1ccccc1	5.4 µM (active)
Cc1c(NC(=O)OC[C@@H]2COCCN2)cn2ncnc(Nc3ccc4c(cnn4Cc4cccc(F)c4)c3)c12	9 µM (active)
Cc1ncc(-c2ccnc(Nc3ccc(S(C)(=O)=O)cc3)n2)n1C(C)C [AZD-5438]	0.6 µM (active)
CN(C)C1CCN(C(=O)c2ccc(NC(=O)Nc3ccc(-c4nc(N5CCOCC5)nc(N5CCOCC5)n4)cc3)cc2)CC1 [GEDATOLISIB]	1.7 µM (active)
Cc1ccc(Sc2cccc3nc(N)nc(N)c23)cc1	8.3 µM (active)
CCC(CC)C(c1ccc(Nc2nc3ccccc3s2)cc1)n1cncn1 (stereo not drawn) [TALAROZOLE]	14.4 µM (inactive)

SMILES	CC50
O=C(/C=C/c1ccc(O)c(O)c1)OCCc1ccccc1 [CAFFEIC ACID PHENETHYL ESTER]	4.7 µM (active)
CC[C@@H]1C(=O)N(C)c2cnc(Nc3ccc(C(=O)NC4CCN(C)CC4)cc3OC)nc2N1C1CCCC1 [BI-2536]	1.2 µM (active)
O=C(Nc1ccc([N+](=O)[O-])cc1O)Nc1ccccc1Br	8.9 µM (active)
CCCc1cc(C)[nH]c(=O)c1CNC(=O)c1cc(-c2ccnc(N3CCN(C)CC3)c2)cc2c1cnn2C(C)C	6 µM (active)
O=C(c1c(F)ccc(NS(=O)(=O)N2CC[C@@H](F)C2)c1F)c1c[nH]c2ncc(-c3cnc(C4CC4)nc3)cc12 [PLIXORAFENIB]	5.4 µM (active)
CN(C)CCCN1c2ccccc2Sc2ccc(Cl)cc21 [CHLORPROMAZINE HYDROCHLORIDE]	5.4 µM (active)
CN(C)C1CCN(CCNC(=O)Nc2ccc(C3CC3)c(F)c2)CC1	4.5 µM (active)
COCC(=O)N1CCCN(Cc2ccc3c4c(cccc24)C(=O)OC3)CC1	13.4 µM (active)
O=C(Nc1ccc(-c2cn3ccsc3n2)cc1)c1cccc(CO)c1	6.3 µM (active)
N#CN=C(NCCCCCCOc1ccc(Cl)cc1)Nc1ccncc1 [CHS-828]	0.1 µM (active)
N#Cc1ccc(Cn2cncc2CN2CCN(c3cccc(Cl)c3)C(=O)C2)cc1 [L-778123]	1.1 µM (active)
CCCC(=O)Nc1ccc(Nc2nc(C)cc(N(CC)CC)n2)cc1	4.2 µM (active)
CC(=O)N1CCN(c2ccc(OC[C@@H]3CO[C@@](Cn4ccnc4)(c4ccc(Cl)cc4Cl)O3)cc2)CC1 [LEVOKETOCONAZOLE]	11.6 µM (active)
COCCOc1ccc2c(c1)ncn2-c1ccc2cccc(N3CCC(N)CC3)c2n1	8.2 µM (active)
CC[C@H](C)n1cc(C)c2c(C(=O)NCc3c(C)cc(C)[nH]c3=O)cc(-c3ccc(N4CCNCC4)nc3)cc21 [GSK2816126]	4.9 µM (active)
Cc1cccc(NC(=O)C2CCN(S(=O)(=O)c3cn(C(C)C)cn3)CC2)c1	8.8 µM (inactive)
CCCCCCOC(=O)NC(=N)c1ccc(NCc2nc3cc(C(=O)N(CCC(=O)OCC)c4ccccn4)ccc3n2C)cc1 [DABIGATRAN ETEXILATE MESYLATE]	10.2 µM (active)
CC/C(=C(\c1ccc(O)cc1)c1ccc(OCCN(C)C)cc1)c1ccccc1 [AFIMOXIFENE]	3.9 µM (active)
c1ccc(CN2C[C@H]3CCNC[C@H]32)cc1	15.9 µM (inactive)
CNCCCC12CCC(c3ccccc31)c1ccccc12 [MAPROTILINE HYDROCHLORIDE]	4.7 µM (active)
CCS(=O)(=O)c1ncc(Cl)c(C(=O)Nc2ccccc2Cl)n1	2.5 µM (active)
O=[N+]([O-])c1ccc(Sc2cccc[n+]2[O-])c2nonc12	0.6 µM (active)
